IC50 data for one compound are collected here from paper PMC10528385 (Antiviral research, 2023).

This experiment concerns the target NA of A/Washington/01/2007 A(H3N2), WT (Influenza A virus, UniProt A7UPN3). Description: biochemical.

Broadly, the IC50 is the concentration at which inhibition is half-maximal. Read a low IC50 as higher potency.

On to `CC(=O)N[C@H]1[C@H]([C@H](O)[C@H](O)CO)OC(C(=O)O)=C[C@@H]1N=C(N)N` [Zanamivir, zanamivir], for which the concentration for half-maximal inhibition (IC50) stood at 1.1 ± 0.1 nM.
